Key:
[1] = tested on: NCI-H460, NCI-H460/R, DLD1 and DLD1-TxR spheroids; assay: Spheroid morphology (AnaSP image analysis); format: cell-based, human; details: 48 h; GI50 and 2 × GI50
Description: Spheroid formation was conducted in 12-series agarose 3D Petri Dish micromolds (MicroTissues Technology, MicroTissues Inc., Sigma-Aldrich). The agarose micromolds were prepared using 1% agarose in a 0.9% NaCl solution and then placed in 12-well plates and equilibrated with RPMI supplemented with 10% FBS for at least 2 h before cell seeding. Cell suspensions corresponding to 500 cells per spheroid of the NSCLC cell lines (NCI-H460 and NCI-H460/R), and 1000 cells per spheroid of the colorectal cancer cell lines (DLD1 and DLD1-TxR) were seeded in the corresponding micromolds. The choice of cell seeding concentration was based on a previous optimization assay (data not shown), ensuring that at the end of the assay the spheroids would have a size of around 400 μm. A 20 min incubation period was used for cells to settle into the micromolds and additional medium was finally added to the wells. Spheroid formation was monitored with the Leica DMi1 microscope. […] At the end of the treatment, images from at least 8 different spheroids per condition were captured on the Leica Dmi1 microscope, and posteriorly analyzed with the automated open-source software AnaSP.[82] Spheroid parameters, such as equivalent diameter, circularity, and compactness, were calculated.
S3.6 Effect of 25 on spheroids from NSCLC and colorectal cancer (Figure S67) […]
2GI50 concentrations previously determined in a 2D setting. […]

NSCLC cell line panel = assay: NCI60 five-dose GI50, NSCLC cell line panel; format: cell-based; details: Homo sapiens, read-out: GI50 range NSCLC cell line panel
Source text: (§1) The concentration−response curve generated enables the determination of three criteria, GI50 (drug concentration at which 50% of cell growth is inhibited), total growth inhibition (TGI) and LC50 (drug concentration at which 50% of tumor cells are killed) which can be used to compare effectiveness against any compound tested in the screen since its inception.
(§2) S2.1 NCI Screening Assay Experimental details
NCI Screening Assay Experimental: Cancer cell growth assays (NCI60 screening) 5,6 One-dose study: Tested compounds were initially solubilised in DMSO, diluted into RPMI 1640 and 5% fetal bovine serum/L-glutamine, and added to 96-well plates containing cell lines previously cultured for 24 h. […] The dye was then resolubilised in Tris buffer, and the colorimetric absorbance was measured (515 nm). Growth inhibition was measured relative to the response generated from proliferating cells cultured under identical conditions for 48 h. […]
(§3) Five-dose study: Serial 5 × 10-fold dilution from an initial DMSO stock solution was performed, prior to incubation at each individual concentration (10 nM, 100 nM, 1 μM, 10 μM and 100 μM). Using seven absorbance measurements (time zero (Tz), control growth (C), and test growth in the presence of drug at the five concentration levels (Ti)), the percentage growth was calculated at each of the drug concentrations levels. […]

MCF12A = assay: SRB cytotoxicity assay, nontumorigenic breast cells; format: cell-based, human; details: 48 h at GI50 concentration obtained on NCI-H460 cells
Description: Selectivity over nontumorigenic cells is a key requirement in cancer therapy so the cytotoxicity of 25 against nontumorigenic lung fibroblast (MRC-5) and breast cell lines (MCF12A) was evaluated with the SRB assay.
Compound 25 was also tested on the nontumorigenic MCF-12A human breast epithelial cell line. […] Following this treatment, the SRB assay was performed as described above.
S3.5 Effect of 25 on the non-tumorigenic MCF12A cell line (Figure S66)
Figure S66 Cytotoxic effect of compound 25 on the non-tumorigenic MCF12A cell line, analysed by the
obtained in the NCI-H460 and NCI-H460/R pair of counterpart cell lines. Results are presented as the
% of cell growth relative to the control cells (treated with the compound vehicle, DMSO at the % used
Data are expressed as mean ± SEM from 3 independent experiments.
(1 picture or pasted object on this page, not shown here)

OVCAR-4 = assay: NCI60 five-dose GI50; format: cell-based; details: Homo sapiens
Source text: as §1, §2
(§4) NCI Screening Assay Experimental: Cancer cell growth assays (NCI60 screening) 5,6 One-dose study: Tested compounds were initially solubilised in DMSO, diluted into RPMI 1640 and 5% fetal bovine serum/L-glutamine, and added to 96-well plates containing cell lines previously cultured for 24 h. After 48 h incubation, the media were removed, and the cells were fixed and stained with sulforhodamine B to determine overall percent growth/ total protein content. Unbound dye was removed with five washes of 1% acetic acid, and the plates were allowed to air dry. The dye was then resolubilised in Tris buffer, and the colorimetric absorbance was measured (515 nm). Growth inhibition was measured relative to the response generated from proliferating cells cultured under identical conditions for 48 h. Data from one-dose experiments pertains to the percentage growth at […]
as §3, with “levels. Percentage growth inhibition was calculated as: [(Ti − Tz)/(C − Tz)] × 100 for concentrations for which Ti ≥ Tz, [(Ti − Tz)/Tz] × 100 for concentrations for which Ti < Tz. Three dose response parameters were calculated for each experimental agent.” for “levels.”
(§5) was calculated from [(Ti − Tz)/(C − Tz)] × 100 = 50, which is the drug concentration resulting in a 50% reduction in the net protein increase (as measured by sulforhodamine B staining) in control cells during the drug incubation. The drug concentration resulting in total growth inhibition (TGI) was calculated from Ti = Tz. The LC50 (concentration of drug resulting in a 50% reduction in the measured protein at the end of the drug treatment as compared to that at the beginning) indicating a net loss of cells following treatment was calculated from [(Ti − Tz)/Tz] × 100 = −50. Values were calculated for each of these three parameters if the level of activity was reached; however, if the effect was not reached or was exceeded, the value for that parameter was expressed as greater or less than the maximum or minimum concentration tested.

MALME-3M = assay: NCI60 five-dose GI50; format: cell-based; details: Homo sapiens
Source text: as §1, §2, §4
as §3, with “levels. Percentage growth inhibition was calculated as: [(Ti − Tz)/(C − Tz)] × 100 for concentrations for which Ti ≥ Tz, [(Ti − Tz)/Tz] × 100 for concentrations for which Ti < Tz. Three dose response parameters were calculated for each experimental agent.” for “levels.”
as §5

NCI-H460 cells = tested on: NCI-H460 cells; set-up: method as in PMID 34915071; details: cited from earlier work
NCI-H460 spheroid = tested on: NCI-H460 spheroid; set-up: method as in PMID 34915071; details: 3D; cited from earlier work

| Compound | spheroid morphological properties (diameter, compactness, circularity) [1] | GI50 (NSCLC cell line panel) [nM] | effect on MCF12A growth (MCF12A) | GI50 (OVCAR-4) [nM] | GI50 (MALME-3M) [nM] | concentration reducing viability of NCI-H460 cells in 2D models (NCI-H460 cells) [µM] | concentration reducing NCI-H460 spheroid viability (NCI-H460 spheroid) [µM] |
| --- | --- | --- | --- | --- | --- | --- | --- |
| COC(=O)c1c2c(c[n+]([O-])c1C)C(=O)C=C(NCc1ccccc1)C2=O [Compound 25] | did not display statistical differences in the AnaSP-calculated morphological properties | 174 to 397 | did not cause significant alterations in the growth of these nontumorigenic cells | 69 | 48 | – | – |
| COc1cccc2c1C(=O)c1c(O)c3c(c(O)c1C2=O)C[C@@](O)(C(=O)CO)C[C@@H]3O[C@H]1C[C@H](N)[C@H](O)[C@H](C)O1 [doxorubicin, reference compound] | – | – | – | – | – | 0.1 | 20 |

Source: article PMC11345829, “Discovery of Potent Isoquinolinequinone N-Oxides to Overcome Cancer Multidrug Resistance” (Journal of Medicinal Chemistry, 2024)
